Where two headings read alike, the source gives them in different places.
Experiments:
Experiment in all cases: biochemical
Parameters in all cases: Eurofins KinaseProfiler full panel at Km ATP, residual kinase activity (%) relative to DMSO
Abl(m) = target: T1, Abl(m) (Mus musculus, UniProt P00520)
T1 construct: gene Abl1
Procedure, shortened: (§1)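 Two 10 µM single-concentration screens were run: a competition-binding screen, in which DNA-tagged kinase bound to immobilized ligands was quantified by qPCR, and a radiometric activity panel at Km ATP. Each is expressed as residual kinase activity (%).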

CDK1/cyclinB(h) = CDK1/cyclinB(h) (Homo sapiens, UniProt P06493)
Chain of CDK1/cyclinB(h) (P06493 whole entry): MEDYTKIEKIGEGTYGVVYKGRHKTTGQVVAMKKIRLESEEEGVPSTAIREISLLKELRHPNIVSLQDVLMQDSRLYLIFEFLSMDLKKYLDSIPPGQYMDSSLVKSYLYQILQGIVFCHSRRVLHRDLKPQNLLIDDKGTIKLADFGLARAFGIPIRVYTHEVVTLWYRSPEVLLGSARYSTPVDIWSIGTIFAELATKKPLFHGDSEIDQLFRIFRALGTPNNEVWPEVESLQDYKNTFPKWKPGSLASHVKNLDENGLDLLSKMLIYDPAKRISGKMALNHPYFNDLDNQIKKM
Chain of CDK1/cyclinB(h) (P14635 whole entry partner): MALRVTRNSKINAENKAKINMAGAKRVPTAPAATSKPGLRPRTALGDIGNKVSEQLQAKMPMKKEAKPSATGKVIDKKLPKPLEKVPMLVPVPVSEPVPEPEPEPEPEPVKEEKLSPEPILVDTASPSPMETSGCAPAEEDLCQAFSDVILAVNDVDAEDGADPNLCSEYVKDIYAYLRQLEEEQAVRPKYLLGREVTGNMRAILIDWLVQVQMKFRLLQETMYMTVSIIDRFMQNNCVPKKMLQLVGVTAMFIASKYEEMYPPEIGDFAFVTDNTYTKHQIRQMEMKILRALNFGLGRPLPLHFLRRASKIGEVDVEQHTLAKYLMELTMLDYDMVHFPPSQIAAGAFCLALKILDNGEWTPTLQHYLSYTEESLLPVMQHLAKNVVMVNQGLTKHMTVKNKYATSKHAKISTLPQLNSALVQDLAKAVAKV
Procedure, shortened: as §1

CaMKIIβ(h) = target: T2, CaMKIIβ(h) (Homo sapiens, UniProt Q13554)
T2 construct: gene CAMK2B
T2 sequence (Q13554 whole entry): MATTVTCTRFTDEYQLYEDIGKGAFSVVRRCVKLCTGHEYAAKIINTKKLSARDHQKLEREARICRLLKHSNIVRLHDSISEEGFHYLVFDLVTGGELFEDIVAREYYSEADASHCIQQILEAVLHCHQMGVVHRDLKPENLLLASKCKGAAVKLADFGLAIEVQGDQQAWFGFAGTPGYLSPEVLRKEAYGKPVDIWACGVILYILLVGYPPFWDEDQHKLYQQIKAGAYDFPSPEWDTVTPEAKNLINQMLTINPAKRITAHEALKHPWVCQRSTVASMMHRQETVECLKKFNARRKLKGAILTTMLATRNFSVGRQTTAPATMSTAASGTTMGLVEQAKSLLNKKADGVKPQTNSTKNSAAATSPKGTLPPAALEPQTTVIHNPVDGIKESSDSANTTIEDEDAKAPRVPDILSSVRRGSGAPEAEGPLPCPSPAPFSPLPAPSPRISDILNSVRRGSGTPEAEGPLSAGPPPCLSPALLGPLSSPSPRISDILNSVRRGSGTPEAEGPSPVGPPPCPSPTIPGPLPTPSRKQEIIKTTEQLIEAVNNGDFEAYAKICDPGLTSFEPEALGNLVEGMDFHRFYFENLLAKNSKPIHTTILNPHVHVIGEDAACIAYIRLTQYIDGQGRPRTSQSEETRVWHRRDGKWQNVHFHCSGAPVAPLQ
Procedure, shortened: as §1

DAPK2(h) = DAPK2(h) (Homo sapiens, UniProt Q9UIK4)
Chain of DAPK2(h) (Q9UIK4 whole entry): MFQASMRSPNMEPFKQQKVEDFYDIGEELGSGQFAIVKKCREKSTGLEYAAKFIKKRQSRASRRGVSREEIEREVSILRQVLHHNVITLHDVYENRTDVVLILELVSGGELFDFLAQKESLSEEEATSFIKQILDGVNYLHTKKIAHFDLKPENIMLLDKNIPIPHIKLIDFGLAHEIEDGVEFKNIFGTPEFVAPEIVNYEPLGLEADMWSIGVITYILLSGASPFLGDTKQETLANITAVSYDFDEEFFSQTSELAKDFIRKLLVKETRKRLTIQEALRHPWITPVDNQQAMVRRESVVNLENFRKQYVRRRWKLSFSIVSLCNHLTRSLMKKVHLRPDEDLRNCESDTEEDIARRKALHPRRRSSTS
Procedure, shortened: as §1

IRAK4(h) = target: T3, IRAK4(h) (Homo sapiens, UniProt Q9NWZ3)
T3 sequence (Q9NWZ3 1-460): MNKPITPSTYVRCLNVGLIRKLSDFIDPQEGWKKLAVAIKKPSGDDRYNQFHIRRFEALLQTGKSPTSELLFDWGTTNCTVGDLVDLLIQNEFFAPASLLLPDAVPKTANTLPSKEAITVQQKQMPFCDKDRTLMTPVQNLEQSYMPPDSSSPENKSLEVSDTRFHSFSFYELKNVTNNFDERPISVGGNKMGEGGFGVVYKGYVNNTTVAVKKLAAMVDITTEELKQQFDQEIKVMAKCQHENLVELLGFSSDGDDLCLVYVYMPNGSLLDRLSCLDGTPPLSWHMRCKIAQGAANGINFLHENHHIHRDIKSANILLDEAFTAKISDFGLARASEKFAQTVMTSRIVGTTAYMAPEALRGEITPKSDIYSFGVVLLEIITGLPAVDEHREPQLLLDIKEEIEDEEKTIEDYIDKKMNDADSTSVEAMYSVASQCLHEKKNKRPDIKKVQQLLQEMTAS
Procedure, shortened: as §1

MARK3(h) = MARK3(h) (Homo sapiens, UniProt P27448)
Chain of MARK3(h) (P27448 whole entry): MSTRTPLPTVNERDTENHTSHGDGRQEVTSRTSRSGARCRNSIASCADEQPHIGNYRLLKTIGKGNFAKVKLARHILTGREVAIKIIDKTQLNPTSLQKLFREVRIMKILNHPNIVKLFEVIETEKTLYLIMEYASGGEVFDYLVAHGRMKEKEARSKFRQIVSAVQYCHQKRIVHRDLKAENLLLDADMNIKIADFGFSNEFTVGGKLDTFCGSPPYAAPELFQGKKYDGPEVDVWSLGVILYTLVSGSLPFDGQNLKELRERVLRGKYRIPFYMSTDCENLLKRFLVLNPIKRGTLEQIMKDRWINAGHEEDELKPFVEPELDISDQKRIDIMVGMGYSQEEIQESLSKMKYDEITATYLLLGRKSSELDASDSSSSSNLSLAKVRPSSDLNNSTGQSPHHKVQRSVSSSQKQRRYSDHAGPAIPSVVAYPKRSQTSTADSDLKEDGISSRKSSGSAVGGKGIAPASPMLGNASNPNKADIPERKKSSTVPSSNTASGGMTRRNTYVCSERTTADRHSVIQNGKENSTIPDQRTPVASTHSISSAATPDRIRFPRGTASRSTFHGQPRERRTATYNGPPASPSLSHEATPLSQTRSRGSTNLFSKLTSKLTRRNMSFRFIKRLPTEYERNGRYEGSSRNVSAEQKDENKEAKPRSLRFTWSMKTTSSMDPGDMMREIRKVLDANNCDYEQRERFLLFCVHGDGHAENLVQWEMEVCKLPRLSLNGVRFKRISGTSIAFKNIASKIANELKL
Procedure, shortened: as §1

OSR1(h) = target: T4, OSR1(h) (Homo sapiens, UniProt O95747)
T4 construct: gene OXSR1
T4 sequence (O95747 whole entry): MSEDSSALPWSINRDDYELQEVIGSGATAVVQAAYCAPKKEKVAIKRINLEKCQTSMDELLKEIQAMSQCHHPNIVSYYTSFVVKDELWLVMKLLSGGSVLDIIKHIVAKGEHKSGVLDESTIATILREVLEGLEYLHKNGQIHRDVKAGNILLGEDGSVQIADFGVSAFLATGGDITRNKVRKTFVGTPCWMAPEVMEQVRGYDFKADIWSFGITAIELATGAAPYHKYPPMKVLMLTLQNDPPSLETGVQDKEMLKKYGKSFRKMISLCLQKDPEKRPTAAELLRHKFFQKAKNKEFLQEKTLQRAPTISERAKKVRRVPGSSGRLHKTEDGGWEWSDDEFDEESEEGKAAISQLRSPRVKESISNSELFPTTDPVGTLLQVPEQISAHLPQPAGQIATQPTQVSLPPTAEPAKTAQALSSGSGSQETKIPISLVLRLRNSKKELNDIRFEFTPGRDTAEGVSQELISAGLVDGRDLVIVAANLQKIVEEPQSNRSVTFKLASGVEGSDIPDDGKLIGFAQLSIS
Procedure, shortened: as §1

SAPK2a(T106M)(h) = target: T5, SAPK2a(T106M)(h) (Homo sapiens, UniProt Q16539, T106M)
T5 construct: gene MAPK14
T5 sequence (Q16539 whole entry T106M): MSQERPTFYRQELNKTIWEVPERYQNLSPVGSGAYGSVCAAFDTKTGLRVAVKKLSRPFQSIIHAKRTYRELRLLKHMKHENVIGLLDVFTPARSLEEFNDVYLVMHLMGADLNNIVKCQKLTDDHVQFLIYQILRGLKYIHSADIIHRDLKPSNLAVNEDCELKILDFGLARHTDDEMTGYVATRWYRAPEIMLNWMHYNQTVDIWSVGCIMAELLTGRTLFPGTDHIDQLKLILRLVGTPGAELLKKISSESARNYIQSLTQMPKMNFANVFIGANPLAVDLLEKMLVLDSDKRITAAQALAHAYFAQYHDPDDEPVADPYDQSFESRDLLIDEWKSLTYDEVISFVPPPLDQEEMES
Procedure, shortened: as §1

SAPK3(h) = target: T6, SAPK3(h) (Homo sapiens, UniProt P53778)
T6 construct: gene MAPK12
T6 sequence (P53778 1-367): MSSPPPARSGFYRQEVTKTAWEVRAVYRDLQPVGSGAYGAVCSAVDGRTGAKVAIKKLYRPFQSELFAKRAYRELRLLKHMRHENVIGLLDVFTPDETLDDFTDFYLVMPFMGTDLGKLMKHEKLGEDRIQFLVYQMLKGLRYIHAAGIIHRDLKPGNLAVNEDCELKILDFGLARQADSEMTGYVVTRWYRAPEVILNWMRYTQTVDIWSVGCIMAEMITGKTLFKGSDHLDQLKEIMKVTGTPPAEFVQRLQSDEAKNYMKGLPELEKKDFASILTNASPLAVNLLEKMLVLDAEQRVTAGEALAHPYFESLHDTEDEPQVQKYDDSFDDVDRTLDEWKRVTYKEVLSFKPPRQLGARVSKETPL
Procedure, shortened: as §1

TAK1(h) = target: T7, TAK1(h) (Homo sapiens, UniProt O43318)
T7 construct: gene MAP3K7
T7 sequence (O43318 1-606): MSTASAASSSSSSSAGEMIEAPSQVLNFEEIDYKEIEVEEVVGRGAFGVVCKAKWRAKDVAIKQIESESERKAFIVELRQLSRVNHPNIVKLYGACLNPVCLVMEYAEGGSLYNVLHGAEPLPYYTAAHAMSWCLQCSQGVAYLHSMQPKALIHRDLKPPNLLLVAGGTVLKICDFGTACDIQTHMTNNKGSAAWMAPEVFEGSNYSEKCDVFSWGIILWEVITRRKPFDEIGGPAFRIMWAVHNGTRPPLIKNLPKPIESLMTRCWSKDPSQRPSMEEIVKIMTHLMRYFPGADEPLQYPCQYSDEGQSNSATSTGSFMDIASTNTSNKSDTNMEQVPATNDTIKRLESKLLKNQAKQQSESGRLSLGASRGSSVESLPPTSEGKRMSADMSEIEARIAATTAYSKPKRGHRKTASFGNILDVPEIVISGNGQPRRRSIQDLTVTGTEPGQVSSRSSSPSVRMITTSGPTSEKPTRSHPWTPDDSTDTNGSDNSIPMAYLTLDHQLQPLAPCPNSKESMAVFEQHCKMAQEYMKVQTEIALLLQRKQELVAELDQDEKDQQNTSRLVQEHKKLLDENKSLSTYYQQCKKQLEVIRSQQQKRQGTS
Procedure, shortened: as §1

[1] = read-out: Residual activity (%) 5at
[2] = read-out: Residual activity (%) 5as
[3] = read-out: Residual activity (%) 5ay
[4] = read-out: Residual activity (%) Spautin-1 5aa

T1 sequence (P00520 whole entry): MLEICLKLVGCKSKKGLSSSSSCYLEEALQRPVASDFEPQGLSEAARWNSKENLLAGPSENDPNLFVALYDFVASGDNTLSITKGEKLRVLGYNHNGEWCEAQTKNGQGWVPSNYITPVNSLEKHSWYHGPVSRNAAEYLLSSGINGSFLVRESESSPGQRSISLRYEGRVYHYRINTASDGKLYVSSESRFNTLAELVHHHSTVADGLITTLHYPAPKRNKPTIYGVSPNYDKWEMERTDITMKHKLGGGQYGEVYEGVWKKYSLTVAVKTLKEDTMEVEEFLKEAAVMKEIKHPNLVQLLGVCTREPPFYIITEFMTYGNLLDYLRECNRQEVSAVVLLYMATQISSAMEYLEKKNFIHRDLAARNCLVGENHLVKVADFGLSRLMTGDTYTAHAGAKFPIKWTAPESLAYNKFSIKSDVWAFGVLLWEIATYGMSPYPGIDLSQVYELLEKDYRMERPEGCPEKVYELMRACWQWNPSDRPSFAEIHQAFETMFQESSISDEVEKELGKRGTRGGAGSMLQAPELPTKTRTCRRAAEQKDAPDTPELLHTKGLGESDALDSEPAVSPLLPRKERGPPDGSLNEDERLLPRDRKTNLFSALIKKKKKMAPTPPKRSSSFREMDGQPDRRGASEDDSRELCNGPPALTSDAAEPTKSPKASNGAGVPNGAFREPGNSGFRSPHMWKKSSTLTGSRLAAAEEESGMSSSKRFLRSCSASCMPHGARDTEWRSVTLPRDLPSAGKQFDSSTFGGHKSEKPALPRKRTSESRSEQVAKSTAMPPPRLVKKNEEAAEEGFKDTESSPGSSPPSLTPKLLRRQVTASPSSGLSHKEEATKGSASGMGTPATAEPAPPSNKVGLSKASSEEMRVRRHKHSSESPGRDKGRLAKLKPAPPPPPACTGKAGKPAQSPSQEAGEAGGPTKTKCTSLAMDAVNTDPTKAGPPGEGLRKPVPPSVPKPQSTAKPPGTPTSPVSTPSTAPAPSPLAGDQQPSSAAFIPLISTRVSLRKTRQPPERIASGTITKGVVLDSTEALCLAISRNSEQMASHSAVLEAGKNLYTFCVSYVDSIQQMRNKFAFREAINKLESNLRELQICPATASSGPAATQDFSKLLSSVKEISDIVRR

Work on `Fc1ccc2ncnc(NCCc3ccc(Cl)cc3)c2c1` [5at, N-[2-(4-Chlorophenyl)Ethyl]-6-Fluoro-4-Quinazolinamine] yielded a remaining activity at 10 µM (Abl(m); [1]) of 99%, a remaining activity at 10 µM (CDK1/cyclinB(h); [1]) of 91% and a remaining activity at 10 µM (CaMKIIβ(h); [1]) of 91%. The remaining activity at 10 µM (DAPK2(h); [1]) was 101%, the remaining activity at 10 µM (IRAK4(h); [1]) was 103% and the remaining activity at 10 µM (MARK3(h); [1]) was 85%. For the same compound, the remaining activity at 10 µM (OSR1(h); [1]) was 108%, the remaining activity at 10 µM (SAPK2a(T106M)(h); [1]) was 103% and the remaining activity at 10 µM (SAPK3(h); [1]) was 87%. The remaining activity at 10 µM (TAK1(h); [1]) was 82%.

In the case of `Fc1ccc(CCNc2ncnc3ccc(F)cc23)cc1` [5as, 6-Fluoro-N-[2-(4-Fluorophenyl)Ethyl]-4-Quinazolinamine], the remaining activity at 10 µM (Abl(m); [2]) is reported as 83%, the remaining activity at 10 µM (CDK1/cyclinB(h); [2]) is reported as 90% and the remaining activity at 10 µM (CaMKIIβ(h); [2]) is reported as 91%. The remaining activity at 10 µM (DAPK2(h); [2]) was 100%, the remaining activity at 10 µM (IRAK4(h); [2]) was 92% and the remaining activity at 10 µM (MARK3(h); [2]) was 87%. For the same compound, the remaining activity at 10 µM (OSR1(h); [2]) was 95%, the remaining activity at 10 µM (SAPK2a(T106M)(h); [2]) was 115% and the remaining activity at 10 µM (SAPK3(h); [2]) was 114%. For the same compound, the remaining activity at 10 µM (TAK1(h); [2]) was 83%.

`COc1ccc2ncnc(Nc3cccc(F)c3)c2c1` [5ay, N-(3-Fluorophenyl)-6-Methoxy-4-Quinazolinamine] showed a remaining activity at 10 µM (Abl(m); [3]) of 56%, a remaining activity at 10 µM (CDK1/cyclinB(h); [3]) of 72% and a remaining activity at 10 µM (CaMKIIβ(h); [3]) of 72%. It also gave a remaining activity at 10 µM (DAPK2(h); [3]) of 91%, a remaining activity at 10 µM (IRAK4(h); [3]) of 60% and a remaining activity at 10 µM (MARK3(h); [3]) of 89%. The remaining activity at 10 µM (OSR1(h); [3]) was 107%, the remaining activity at 10 µM (SAPK2a(T106M)(h); [3]) was 121% and the remaining activity at 10 µM (SAPK3(h); [3]) was 101%. The remaining activity at 10 µM (TAK1(h); [3]) was 74%.

In the case of `Fc1ccc(CNc2ncnc3ccc(F)cc23)cc1` [5aa, 6-Fluoro-N-(4-fluorobenzyl)-4-Quinazolinamine], the remaining activity at 10 µM (Abl(m); [4]) is reported as 90%, the remaining activity at 10 µM (CDK1/cyclinB(h); [4]) is reported as 87% and the remaining activity at 10 µM (CaMKIIβ(h); [4]) is reported as 81%. For the same compound, the remaining activity at 10 µM (DAPK2(h); [4]) was 94%, the remaining activity at 10 µM (IRAK4(h); [4]) was 96% and the remaining activity at 10 µM (MARK3(h); [4]) was 95%. The remaining activity at 10 µM (OSR1(h); [4]) was 100%, the remaining activity at 10 µM (SAPK2a(T106M)(h); [4]) was 95% and the remaining activity at 10 µM (SAPK3(h); [4]) was 106%. The remaining activity at 10 µM (TAK1(h); [4]) was 74%.
